In patent US20190322676A1, “CERAMIDE GALACTOSYLTRANSFERASE INHIBITORS FOR THE TREATMENT OF DISEASE” (BioMarin Pharmaceutical Inc., priority 2016, published 2019):
Counter-ions that a name gives are not always drawn.

Target: T1, human CGT (ceramide galactosyltransferase), CHO/CGT lysate (Homo sapiens, UniProt Q16880)
T1 construct: Full-length human CGT cDNA was cloned into the BamH1/Xho1 site of pcDNA3.1 (+); expressed in transfected cells; host or cells: Chinese hamster ovary (CHO) cells; lysate prepared with M-PER
T1 sequence (Q16880 21-541): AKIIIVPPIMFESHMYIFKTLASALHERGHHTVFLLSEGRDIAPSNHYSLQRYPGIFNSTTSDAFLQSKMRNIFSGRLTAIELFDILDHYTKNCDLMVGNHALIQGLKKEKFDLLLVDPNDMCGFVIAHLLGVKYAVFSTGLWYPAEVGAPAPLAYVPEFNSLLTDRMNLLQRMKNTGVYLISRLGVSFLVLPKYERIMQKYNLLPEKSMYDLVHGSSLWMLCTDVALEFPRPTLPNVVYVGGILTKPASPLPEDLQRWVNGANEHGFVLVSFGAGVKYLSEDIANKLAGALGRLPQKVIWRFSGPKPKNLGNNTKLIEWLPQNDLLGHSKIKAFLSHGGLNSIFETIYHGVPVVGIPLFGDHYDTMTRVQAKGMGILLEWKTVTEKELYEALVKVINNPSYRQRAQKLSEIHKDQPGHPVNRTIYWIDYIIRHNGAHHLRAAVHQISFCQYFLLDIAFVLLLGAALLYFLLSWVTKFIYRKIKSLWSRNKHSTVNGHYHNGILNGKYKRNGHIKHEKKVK
Assay: CGT enzyme assay, RapidFire/MS/MS readout with 0.01% Tween added (Table 1 ranges with two asterisks **)
Format: biochemical
Conditions: CGT enzymatic assay; range with two asterisks (**): RapidFire/MS/MS method with 0.01% Tween added
Summary of the method: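 IC50s come from variable-slope dose-response fits of internal-standard-normalized C6-NBD-dihydro-galactosylceramide, measured by RapidFire/MS/MS (ESI negative). Reactions: 1 h, 37 °C, human CGT-expressing CHO lysate (4 μg), 0.001–50 μM compound, 10 μM NBD-dihydro-ceramide, 17.5 μM UDP-galactose, 0.5% DMSO, pH 7.2; 0.01% Tween 80 added for ** values.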

Row | IC50 [µM] | Compound
1 | 30 to 100 | O=C([C@H](NS(=O)(=O)c1ccc(OCC2CCCCC2)cc1)C(F)(F)c1ccc(-c2ccc(Cl)cc2)cc1)N1CC[C@@H]2CNC[C@@H]21 [Compound 195-2, N-((S)-1-(4′-chloro-[1,1′-biphenyl]-4-yl)-1,1-difluoro-3-((3aR,6aR)-hexahydropyrrolo[3,4-b]pyrrol-1(2H)-yl)-3-oxopropan-2-yl)-4-(cyclohexylmethoxy)benzenesulfonamide]
2 | 1 to 10 | NC(=NO)C1CCN(C(=O)[C@@H](NS(=O)(=O)c2ccc3cc(OC4CCCC4)ccc3c2)C(F)(F)c2ccc(-c3ccc(Cl)cc3)cc2)CC1 [Compound 174-1, (R)-1-(3-(4′-chloro-[1,1′-biphenyl]-4-yl)-2-((6-(cyclopentyloxy)naphthalene)-2-sulfonamido)-3,3-difluoropropanoyl)-N′-hydroxypiperidine-4-carboximidamide]
3 | 1 to 10 | NC1CCN(C(=O)[C@@H](NC(=O)[C@@H](O)c2ccc3cc(OC4CCCC4)ccc3c2)C(F)(F)c2ccc(-c3ccc(Cl)cc3)cc2)CC1 [Compound 159-3, (S)—N—((R)-3-(4-aminopiperidin-1-yl)-1-(4′-chloro-[1,1′-biphenyl]-4-yl)-1,1-difluoro-3-oxopropan-2-yl)-2-(6-(cyclopentyloxy)naphthalen-2-yl)-2-hydroxyacetamide trifluoroacetate]
4 | 10 to 30 | NC1CCN(C(=O)[C@@H](NC(=O)C(=O)c2cc3ccc(OC4CCCC4)cc3s2)C(F)(F)c2ccc(-c3ccc(Cl)cc3)cc2)CC1 [Compound 175-1, (R)—N-(3-(4-aminopiperidin-1-yl)-1-(4′-chloro-[1,1′-biphenyl]-4-yl)-1,1-difluoro-3-oxopropan-2-yl)-2-(6-(cyclopentyloxy)benzo[b]thiophen-2-yl)-2-oxoacetamide trifluoroacetate]
5 | < 1 | NC1CCN(C(=O)[C@@H](NS(=O)(=O)c2ccc3cc(OC4CCCC4)ccc3c2)C(F)(F)c2ccc(C3(C(F)(F)F)CC3)cc2)CC1 [Compound 182-1, (R)—N-(3-(4-aminopiperidin-1-yl)-1,1-difluoro-3-oxo-1-(4-(1-(trifluoromethyl)cyclopropyl)phenyl)propan-2-yl)-6-(cyclopentyloxy)naphthalene-2-sulfonamide trifluoroacetate]
6 | 1 to 10 | NC1CCN(C(=O)[C@@H](NS(=O)(=O)c2cc3ccc(OC4CCCC4)cc3s2)C(F)(F)c2ccc(-c3ccc(Cl)cc3)cc2)CC1 [Compound 164-1, (R)—N-(3-(4-aminopiperidin-1-yl)-1-(4′-chloro-[1,1′-biphenyl]-4-yl)-1,1-difluoro-3-oxopropan-2-yl)-6-(cyclopentyloxy)benzo[b]thiophene-2-sulfonamide]
7 | 30 to 100 | NC1CCN(C(=O)[C@@H](NS(=O)(=O)c2ccc(COC3CCCCC3)s2)C(F)(F)c2ccc(-c3ccc(Cl)cc3)cc2)CC1 [Compound 165-2, (R)—N-(3-(4-aminopiperidin-1-yl)-1-(4′-chloro-[1,1′-biphenyl]-4-yl)-1,1-difluoro-3-oxopropan-2-yl)-5-((cyclohexyloxy)methyl)thiophene-2-sulfonamide trifluoroacetate]
8 | 1 to 10 | C=C(c1ccc(C(F)(F)[C@H](NS(=O)(=O)c2ccc3cc(OC4CCCC4)ccc3c2)C(=O)N2CCC(N)CC2)cc1)C(F)(F)F [Compound 166-1, (R)—N-(3-(4-aminopiperidin-1-yl)-1,1-difluoro-3-oxo-1-(4-(3,3,3-trifluoroprop-1-en-2-yl)phenyl)propan-2-yl)-6-(cyclopentyloxy)naphthalene-2-sulfonamide]
9 | 1 to 10 | O=C([C@@H](NS(=O)(=O)c1ccc(OCC2CCCCC2)cc1)C(F)(F)c1ccc(-c2ccc(Cl)cc2)cc1)N1CC[C@@H]2CNC[C@@H]21 [Compound 195-3, N-((R)-1-(4′-chloro-[1,1′-biphenyl]-4-yl)-1,1-difluoro-3-((3aR,6aR)-hexahydropyrrolo[3,4-b]pyrrol-1(2H)-yl)-3-oxopropan-2-yl)-4-(cyclohexylmethoxy)benzenesulfonamide]
10 | 30 to 100 | NC1CCN(C(=O)[C@H](NC(=O)[C@@H](O)c2ccc3cc(OC4CCCC4)ccc3c2)C(F)(F)c2ccc(-c3ccc(Cl)cc3)cc2)CC1 [Compound 159-2, (S)—N—((S)-3-(4-aminopiperidin-1-yl)-1-(4′-chloro-[1,1′-biphenyl]-4-yl)-1,1-difluoro-3-oxopropan-2-yl)-2-(6-(cyclopentyloxy)naphthalen-2-yl)-2-hydroxyacetamide trifluoroacetate]
11 | 10 to 30 | N[C@H]1CCN(C(=O)[C@H](NS(=O)(=O)c2ccc3cc(OC4CCCC4)ccc3c2)C(F)(F)c2ccc(-c3ccc(Cl)cc3)cc2)C1 [Compound 148-2, N—((S)-3-((S)-3-aminopyrrolidin-1-yl)-1-(4′-chloro-[1,1′-biphenyl]-4-yl)-1,1-difluoro-3-oxopropan-2-yl)-6-(cyclopentyloxy)naphthalene-2-sulfonamide trifluoroacetate]

Row | Compound | IC50 [µM]
12 | COc1cc(C(F)(F)[C@H](NS(=O)(=O)c2ccc(OCC3CCCCC3)cc2)C(=O)N2CCC(N)CC2)ccc1-c1ccc(Cl)cc1 [Compound 146-1, (R)—N-(3-(4-aminopiperidin-1-yl)-1-(4′-chloro-2-methoxy-[1,1′-biphenyl]-4-yl)-1,1-difluoro-3-oxopropan-2-yl)-4-(cyclohexylmethoxy) benzenesulfonamide trifluoroacetate] | < 1
13 | N[C@H]1CC2CCC1N2C(=O)[C@H](NS(=O)(=O)c1ccc2cc(OC3CCCC3)ccc2c1)C(F)(F)c1ccc(-c2ccc(Cl)cc2)cc1 (stereo partly drawn) [Compound 180-2, N-((2S)-3-((2S)-2-amino-7-azabicyclo[2.2.1]heptan-7-yl)-1-(4′-chloro-[1,1′-biphenyl]-4-yl)-1,1-difluoro-3-oxopropan-2-yl)-6-(cyclopentyloxy)naphthalene-2-sulfonamide] | 10 to 30
14 | CN(CCCN)C(=O)[C@@H](NS(=O)(=O)c1ccc2cc(OC3CCCC3)ccc2c1)C(F)(F)c1ccc(-c2ccc(Cl)cc2)cc1 [Compound 157-1, (R)—N-(3-aminopropyl)-3-(4′-chloro-[1,1′-biphenyl]-4-yl)-2-((6-(cyclopentyloxy)naphthalene)-2-sulfonamido)-3,3-difluoro-N-methylpropanamide] | 1 to 10
15 | NC1CC2CCC(C1)N2C(=O)[C@@H](NS(=O)(=O)c1ccc(OCC2CCCCC2)cc1)C(F)(F)c1ccc(Cl)s1 (stereo partly drawn) [Compound 194-1, N-((2R)-3-(3-amino-8-azabicyclo[3.2.1]octan-8-yl)-1-(5-chlorothiophen-2-yl)-1,1-difluoro-3-oxopropan-2-yl)-4-(cyclohexylmethoxy)benzenesulfonamide] | 1 to 10
16 | NC1CC2CCC(C1)N2C(=O)[C@@H](NC(=O)[C@@H](O)c1ccc2cc(OC3CCCC3)ccc2c1)C(F)(F)c1ccc2cc(Br)ccc2c1 (stereo partly drawn) [Compound 158-3, (2S)—N-((2R)-3-(3-amino-8-azabicyclo[3.2.1]octan-8-yl)-1-(6-bromonaphthalen-2-yl)-1,1-difluoro-3-oxopropan-2-yl)-2-(6-(cyclopentyloxy)naphthalen-2-yl)-2-hydroxyacetamide trifluoroacetate] | 10 to 30

Same assay, conditions: CGT enzyme assay, RapidFire/MS/MS method with 0.01% Tween added (range with two asterisks **)

Row | IC50 [µM] | Compound
17 | 1 to 10 | COc1cc(C(F)(F)[C@@H](NS(=O)(=O)c2ccc3cc(OC4CCCC4)ccc3c2)C(=O)N2CCC(N)CC2)ccc1Br [Compound 143-2, (S)—N-(3-(4-aminopiperidin-1-yl)-1-(4-bromo-3-methoxyphenyl)-1,1-difluoro-3-oxopropan-2-yl)-6-(cyclopentyloxy) naphthalene-2-sulfonamide trifluoroacetate]
